Values of other authors, collected in patent US20210339043A1, “NEURAL STIMULATION VIA VISUAL STIMULATION” (Cognito Therapeutics, Inc., priority 2016, published 2021).

Conditions: 70 kg adult; for estimated absorbed radiation dose, Adrenals: organ: Adrenals; for estimated absorbed radiation dose, Brain: organ: Brain; for estimated absorbed radiation dose, Breasts: organ: Breasts; for estimated absorbed radiation dose, Heart Wall: organ: Heart Wall; for estimated absorbed radiation dose, Kidneys: organ: Kidneys; for estimated absorbed radiation dose, Lungs: organ: Lungs; for estimated absorbed radiation dose, Muscle: organ: Muscle; for estimated absorbed radiation dose, Ovaries: organ: Ovaries; for estimated absorbed radiation dose, Pancreas: organ: Pancreas; for estimated absorbed radiation dose, Red marrow: organ: Red marrow; for estimated absorbed radiation dose, Skin: organ: Skin; for estimated absorbed radiation dose, Spleen: organ: Spleen; for estimated absorbed radiation dose, Testes: organ: Testes; for estimated absorbed radiation dose, Thymus: organ: Thymus; for estimated absorbed radiation dose, Thyroid: organ: Thyroid; for estimated absorbed radiation dose, Urinary bladder wall: organ: Urinary bladder wall; for estimated absorbed radiation dose, Uterus: organ: Uterus

Structure (SMILES)	estimated absorbed radiation dose, Adrenals	estimated absorbed radiation dose, Brain	estimated absorbed radiation dose, Breasts	estimated absorbed radiation dose, Heart Wall	estimated absorbed radiation dose, Kidneys	estimated absorbed radiation dose, Lungs	estimated absorbed radiation dose, Muscle	estimated absorbed radiation dose, Ovaries	estimated absorbed radiation dose, Pancreas	estimated absorbed radiation dose, Red marrow	estimated absorbed radiation dose, Skin	estimated absorbed radiation dose, Spleen	estimated absorbed radiation dose, Testes	estimated absorbed radiation dose, Thymus	estimated absorbed radiation dose, Thyroid	estimated absorbed radiation dose, Urinary bladder wall	estimated absorbed radiation dose, Uterus	also measured
CNc1ccc(/C=C/c2ccc(OCCOCCOCC[18F])nc2)cc1 [18F-AV-45]	0.05 rad/mCi	0.037 rad/mCi	0.023 rad/mCi	0.048 rad/mCi	0.048 rad/mCi	0.032 rad/mCi	0.032 rad/mCi	0.065 rad/mCi	0.053 rad/mCi	0.053 rad/mCi	0.022 rad/mCi	0.033 rad/mCi	0.025 rad/mCi	0.027 rad/mCi	0.025 rad/mCi	0.1 rad/mCi	0.058 rad/mCi	
OC[C@H]1O[C@@H](O)[C@H]([18F])[C@@H](O)[C@@H]1O [FDG]	0.048 rad/mCi	0.07 rad/mCi	0.034 rad/mCi	0.22 rad/mCi	0.074 rad/mCi	0.064 rad/mCi	0.039 rad/mCi	0.053 rad/mCi	0.096 rad/mCi	0.047 rad/mCi	0.03 rad/mCi	0.14 rad/mCi	0.041 rad/mCi	0.044 rad/mCi	0.039 rad/mCi	0.32 rad/mCi	0.062 rad/mCi	critical organ (radiation dose): urinary bladder wall, followed by heart, spleen and pancreas; estimated absorbed radiation dose, Gallbladder Wall (organ: Gallbladder Wall): 0.049 rad/mCi; estimated absorbed radiation dose, Liver (organ: Liver): 0.058 rad/mCi; estimated absorbed radiation dose, Lower Large Intestine Wall (organ: Lower Large Intestine Wall): 0.051 rad/mCi; estimated absorbed radiation dose, Small Intestine (organ: Small Intestine): 0.047 rad/mCi; estimated absorbed radiation dose, Upper Large Intestine Wall (organ: Upper Large Intestine Wall): 0.046 rad/mCi
